Measured values published in ChEMBL document CHEMBL3885881, “DrugMatrix”.

Species: Rattus norvegicus
Assay: DrugMatrix - Regimen: Daily Repeat
Assay type: toxicity, organism-based, Sprague-Dawley
Design: regimen Daily Repeat, gender Male, age 6-8 weeks
Settings: in vivo, po, route oral GAVAGE, vehicle .5 % CMC; for ABSOLUTE BASOPHIL / ABSOLUTE EOSINOPHIL / ABSOLUTE LYMPHOCYTE / ABSOLUTE MONOCYTE / ABSOLUTE SEGMENTED NEUTROPHIL / BASOPHIL / EOSINOPHIL / ERYTHROCYTE COUNT / HEMATOCRIT / HEMOGLOBIN / LEUKOCYTE COUNT / LYMPHOCYTE / MEAN CORPUSCULAR HEMOGLOBIN / MEAN CORPUSCULAR HEMOGLOBIN CONCENTRATION / MEAN CORPUSCULAR VOLUME / MONOCYTE / NEUTROPHIL / NUCLEATED RED BLOOD CELLS / PLATELET COUNT: tissue Blood; for ALANINE AMINOTRANSFERASE / ALBUMIN / ALKALINE PHOSPHATASE / ASPARTATE AMINOTRANSFERASE / BLOOD UREA NITROGEN / CARBON DIOXIDE / CHLORIDE / CHOLESTEROL / CREATINE PHOSPHOKINASE / CREATININE / GLUCOSE / LACTATE DEHYDROGENASE / LIPASE / PHOSPHORUS / POTASSIUM / SODIUM / TOTAL BILIRUBIN / TOTAL PROTEIN / URIC ACID: tissue Plasma
[1] = 0 mg/kg, 72 h, dose level Control, time 3 day
[2] = 0 mg/kg, 120 h, dose level Control, time 5 day
[3] = 30 mg/kg, 72 h, dose level Low, time 3 day

CCOc1cc(N)c(Cl)cc1C(=O)NCC1CN(Cc2ccc(F)cc2)CCO1 (centres undefined) [MOSAPRIDE]
ABSOLUTE BASOPHIL [1]: 0 CELLS/uL
ABSOLUTE EOSINOPHIL [1]: 171.33 CELLS/uL
ABSOLUTE LYMPHOCYTE [1]: 13776.5 CELLS/uL
ABSOLUTE MONOCYTE [1]: 180.83 CELLS/uL
ABSOLUTE SEGMENTED NEUTROPHIL [1]: 1121.33 CELLS/uL
BASOPHIL [1]: 0%
EOSINOPHIL [1]: 1%
ERYTHROCYTE COUNT [1]: 5.56 x10E6/uL
HEMATOCRIT [1]: 34.75%
HEMOGLOBIN [1]: 13.68 G/DL
LEUKOCYTE COUNT [1]: 15.25 x10E3/uL
LYMPHOCYTE [1]: 90.17%
MEAN CORPUSCULAR HEMOGLOBIN [1]: 24.6 pg
MEAN CORPUSCULAR HEMOGLOBIN CONCENTRATION [1]: 39.4 G/DL
MEAN CORPUSCULAR VOLUME [1]: 62.48 fL
MONOCYTE [1]: 1.17%
NEUTROPHIL [1]: 7.67%
NUCLEATED RED BLOOD CELLS [1]: 0 /100WBC
PLATELET COUNT [1]: 1342 x10E3/uL
ALANINE AMINOTRANSFERASE [1]: 49.67 u/L
ALBUMIN [1]: 4.15 G/DL
ALKALINE PHOSPHATASE [1]: 346.83 u/L
ASPARTATE AMINOTRANSFERASE [1]: 108.17 u/L
BLOOD UREA NITROGEN [1]: 17.33 mg/dL
CARBON DIOXIDE [1]: 25 mmol/L
CHLORIDE [1]: 100.83 MEQ/L
CHOLESTEROL [1]: 66.83 mg/dL
CREATINE PHOSPHOKINASE [1]: 788 u/L
CREATININE [1]: 0.18 mg/dL
GLUCOSE [1]: 151.67 mg/dL
LACTATE DEHYDROGENASE [1]: 982.5 u/L
LIPASE [1]: 10.33 u/L
PHOSPHORUS [1]: 11.23 mg/dL
POTASSIUM [1]: 6.37 MEQ/L
SODIUM [1]: 141.02 MEQ/L
TOTAL BILIRUBIN [1]: 0.18 mg/dL
TOTAL PROTEIN [1]: 5.9 G/DL
URIC ACID [1]: 1.8 mg/dL
ABSOLUTE BASOPHIL [2]: 0 CELLS/uL
ABSOLUTE EOSINOPHIL [2]: 69 CELLS/uL
ABSOLUTE LYMPHOCYTE [2]: 13632.83 CELLS/uL
ABSOLUTE MONOCYTE [2]: 139.83 CELLS/uL
ABSOLUTE SEGMENTED NEUTROPHIL [2]: 1225 CELLS/uL
BASOPHIL [2]: 0%
EOSINOPHIL [2]: 0.33%
ERYTHROCYTE COUNT [2]: 5.52 x10E6/uL
HEMATOCRIT [2]: 33.98%
HEMOGLOBIN [2]: 13.22 G/DL
LEUKOCYTE COUNT [2]: 15.07 x10E3/uL
LYMPHOCYTE [2]: 90.83%
MEAN CORPUSCULAR HEMOGLOBIN [2]: 23.95 pg
MEAN CORPUSCULAR HEMOGLOBIN CONCENTRATION [2]: 38.9 G/DL
MEAN CORPUSCULAR VOLUME [2]: 61.53 fL
MONOCYTE [2]: 0.83%
NEUTROPHIL [2]: 8%
NUCLEATED RED BLOOD CELLS [2]: 0 /100WBC
PLATELET COUNT [2]: 1196 x10E3/uL
ALANINE AMINOTRANSFERASE [2]: 49.17 u/L
ALBUMIN [2]: 4.2 G/DL
ALKALINE PHOSPHATASE [2]: 352.33 u/L
ASPARTATE AMINOTRANSFERASE [2]: 89.67 u/L
BLOOD UREA NITROGEN [2]: 18 mg/dL
CARBON DIOXIDE [2]: 27.67 mmol/L
CHLORIDE [2]: 101 MEQ/L
CHOLESTEROL [2]: 72.83 mg/dL
CREATINE PHOSPHOKINASE [2]: 417.5 u/L
CREATININE [2]: 0.18 mg/dL
GLUCOSE [2]: 150.5 mg/dL
LACTATE DEHYDROGENASE [2]: 517.33 u/L
LIPASE [2]: 9 u/L
PHOSPHORUS [2]: 11.87 mg/dL
POTASSIUM [2]: 6.57 MEQ/L
SODIUM [2]: 143.62 MEQ/L
TOTAL BILIRUBIN [2]: 0.2 mg/dL
TOTAL PROTEIN [2]: 6.08 G/DL
URIC ACID [2]: 1.45 mg/dL
ABSOLUTE BASOPHIL [3]: 0 CELLS/uL
ABSOLUTE EOSINOPHIL [3]: 0 CELLS/uL
ABSOLUTE LYMPHOCYTE [3]: 13493 CELLS/uL
ABSOLUTE MONOCYTE [3]: 253.67 CELLS/uL
ABSOLUTE SEGMENTED NEUTROPHIL [3]: 1253.33 CELLS/uL
BASOPHIL [3]: 0%
EOSINOPHIL [3]: 0%
ERYTHROCYTE COUNT [3]: 5.62 x10E6/uL
HEMATOCRIT [3]: 34.97%
HEMOGLOBIN [3]: 13.6 G/DL
LEUKOCYTE COUNT [3]: 15 x10E3/uL
LYMPHOCYTE [3]: 90%
MEAN CORPUSCULAR HEMOGLOBIN [3]: 24.23 pg
MEAN CORPUSCULAR HEMOGLOBIN CONCENTRATION [3]: 38.9 G/DL
MEAN CORPUSCULAR VOLUME [3]: 62.3 fL
MONOCYTE [3]: 1.67%
NEUTROPHIL [3]: 8.33%
NUCLEATED RED BLOOD CELLS [3]: 0 /100WBC
PLATELET COUNT [3]: 1159.67 x10E3/uL
ALANINE AMINOTRANSFERASE [3]: 57.33 u/L
ALBUMIN [3]: 4.3 G/DL
ALKALINE PHOSPHATASE [3]: 338 u/L
ASPARTATE AMINOTRANSFERASE [3]: 95 u/L
BLOOD UREA NITROGEN [3]: 14.67 mg/dL
CARBON DIOXIDE [3]: 26.33 mmol/L
CHLORIDE [3]: 102 MEQ/L
CHOLESTEROL [3]: 74 mg/dL
CREATINE PHOSPHOKINASE [3]: 533.33 u/L
CREATININE [3]: 0.2 mg/dL
GLUCOSE [3]: 136.67 mg/dL
LACTATE DEHYDROGENASE [3]: 408 u/L
LIPASE [3]: 10.67 u/L
PHOSPHORUS [3]: 12.77 mg/dL
POTASSIUM [3]: 6.39 MEQ/L
SODIUM [3]: 143.7 MEQ/L
TOTAL BILIRUBIN [3]: 0.2 mg/dL
TOTAL PROTEIN [3]: 6 G/DL
URIC ACID [3]: 1.47 mg/dL
